The NIST ThermoML archive (doi:10.1021/je9005757)

Experiment: cn = amount concentration of the nth substance listed, in mol/dm3
Details: 101 kPa, Liquid; for molar conductivity: Shedlovsky-type conductance cell; for binary diffusion coefficient: Open capillary

CN[C@H](C)[C@@H](O)c1ccccc1.[Cl-].[H+] [D-α-(1-methylaminoethyl)benzyl alcohol] + O
Details | binary diffusion coefficient, 298.15 K [m2/s] | binary diffusion coefficient, 310.15 K [m2/s] | molar conductivity, 283.15 K [S·m2/mol] | molar conductivity, 293.15 K [S·m2/mol] | molar conductivity, 298.15 K [S·m2/mol] | molar conductivity, 303.15 K [S·m2/mol] | molar conductivity, 310.15 K [S·m2/mol] | molar conductivity, 323.15 K [S·m2/mol]
c1 = 0.001 | 1.13e-09 | 1.57e-09 | – | – | – | – | – | –
c1 = 0.001841 | – | – | 0.006545 | 0.00844 | 0.009366 | 0.01041 | 0.01201 | 0.01524
c1 = 0.00244 | – | – | 0.006422 | 0.008268 | 0.009179 | 0.0102 | 0.01177 | 0.01489
c1 = 0.0025 | 1.12e-09 | 1.53e-09 | – | – | – | – | – | –
c1 = 0.003031 | – | – | 0.006316 | 0.008109 | 0.009034 | 0.01001 | 0.01159 | 0.01469
c1 = 0.003615 | – | – | 0.006204 | 0.007973 | 0.008901 | 0.009837 | 0.01141 | 0.01444
c1 = 0.004193 | – | – | 0.006101 | 0.007849 | 0.008778 | 0.009703 | 0.01122 | 0.01422
c1 = 0.004763 | – | – | 0.006018 | 0.007749 | 0.008675 | 0.009566 | 0.01107 | 0.01401
c1 = 0.005 | 1.1e-09 | 1.48e-09 | – | – | – | – | – | –
c1 = 0.005327 | – | – | 0.005942 | 0.007661 | 0.008577 | 0.009439 | 0.01094 | 0.01384
c1 = 0.005884 | – | – | 0.005866 | 0.00757 | 0.008481 | 0.00932 | 0.01079 | 0.01368
c1 = 0.006434 | – | – | 0.005795 | 0.007486 | 0.00839 | 0.009208 | 0.0107 | 0.01352
c1 = 0.006978 | – | – | 0.005725 | 0.007395 | 0.008298 | 0.009099 | 0.01057 | 0.01337
c1 = 0.007516 | – | – | 0.005655 | 0.00731 | 0.008205 | 0.008991 | 0.01046 | 0.01322
c1 = 0.008 | 1.05e-09 | 1.42e-09 | – | – | – | – | – | –
c1 = 0.008048 | – | – | 0.005593 | 0.007232 | 0.00812 | 0.008893 | 0.01036 | 0.01308
c1 = 0.008573 | – | – | 0.005534 | 0.007159 | 0.00804 | 0.0088 | 0.01027 | 0.01295
c1 = 0.009093 | – | – | 0.005477 | 0.007089 | 0.007965 | 0.008713 | 0.01018 | 0.01283
c1 = 0.009607 | – | – | 0.005427 | 0.007027 | 0.007896 | 0.008633 | 0.01009 | 0.01271
c1 = 0.01 | 1.01e-09 | 1.38e-09 | – | – | – | – | – | –
c1 = 0.01012 | – | – | 0.005377 | 0.006966 | 0.007829 | 0.008556 | 0.01001 | 0.0126
c1 = 0.01062 | – | – | 0.005329 | 0.006904 | 0.007761 | 0.008478 | 0.009923 | 0.01249
c1 = 0.01111 | – | – | 0.005284 | 0.006844 | 0.007695 | 0.008404 | 0.009841 | 0.01238
c1 = 0.01161 | – | – | 0.005242 | 0.006785 | 0.00763 | 0.008329 | 0.00976 | 0.01228
c1 = 0.01209 | – | – | 0.005196 | 0.006729 | 0.007567 | 0.008257 | 0.009679 | 0.01217
c1 = 0.01257 | – | – | 0.005156 | 0.006675 | 0.007501 | 0.00819 | 0.009603 | 0.01208
c1 = 0.01305 | – | – | 0.005118 | 0.006626 | 0.00745 | 0.008126 | 0.009532 | 0.01198
c1 = 0.01352 | – | – | 0.005078 | 0.006576 | 0.007395 | 0.008064 | 0.009461 | 0.01189
c1 = 0.01398 | – | – | 0.005038 | 0.006528 | 0.007343 | 0.008005 | 0.009394 | 0.01181
c1 = 0.01444 | – | – | 0.005003 | 0.006483 | 0.007291 | 0.007946 | 0.009328 | 0.01172
c1 = 0.0149 | – | – | 0.004966 | 0.006437 | 0.007239 | 0.007888 | 0.009261 | 0.01164
c1 = 0.01535 | – | – | 0.004929 | 0.00639 | 0.007188 | 0.007831 | 0.009196 | 0.01155
c1 = 0.01579 | – | – | 0.004894 | 0.006343 | 0.007138 | 0.007776 | 0.009132 | 0.01147
c1 = 0.01623 | – | – | 0.004861 | 0.006302 | 0.00709 | 0.007722 | 0.009069 | 0.01139
c1 = 0.01667 | – | – | 0.004832 | 0.006262 | 0.007045 | 0.007671 | 0.00901 | 0.01132

CN[C@@H](C)[C@H](O)c1ccccc1.Cl [ephedrine hydrochloride] + O
Details | binary diffusion coefficient, 298.15 K [m2/s] | binary diffusion coefficient, 310.15 K [m2/s] | molar conductivity, 283.15 K [S·m2/mol] | molar conductivity, 293.15 K [S·m2/mol] | molar conductivity, 298.15 K [S·m2/mol] | molar conductivity, 303.15 K [S·m2/mol] | molar conductivity, 310.15 K [S·m2/mol] | molar conductivity, 323.15 K [S·m2/mol]
c1 = 0.00125 | 1.15e-09 | 1.57e-09 | – | – | – | – | – | –
c1 = 0.00184 | – | – | 0.006571 | 0.008375 | 0.009463 | 0.01041 | 0.01195 | 0.01495
c1 = 0.002438 | – | – | 0.006463 | 0.008198 | 0.009282 | 0.01023 | 0.01173 | 0.01471
c1 = 0.0025 | 1.1e-09 | 1.56e-09 | – | – | – | – | – | –
c1 = 0.00303 | – | – | 0.006355 | 0.008059 | 0.009127 | 0.01006 | 0.01154 | 0.01449
c1 = 0.003614 | – | – | 0.00628 | 0.007907 | 0.008991 | 0.009914 | 0.01139 | 0.01427
c1 = 0.004191 | – | – | 0.006181 | 0.007775 | 0.00886 | 0.009802 | 0.01125 | 0.01408
c1 = 0.004761 | – | – | 0.006103 | 0.007663 | 0.008753 | 0.009663 | 0.01108 | 0.01392
c1 = 0.00499 | 1.09e-09 | 1.5e-09 | – | – | – | – | – | –
c1 = 0.005324 | – | – | 0.006044 | 0.007564 | 0.008653 | 0.009567 | 0.01096 | 0.01377
c1 = 0.005881 | – | – | 0.00599 | 0.007468 | 0.008556 | 0.009474 | 0.01085 | 0.01356
c1 = 0.006431 | – | – | 0.005925 | 0.007377 | 0.008465 | 0.009363 | 0.01074 | 0.01344
c1 = 0.006975 | – | – | 0.00586 | 0.007288 | 0.008374 | 0.009271 | 0.01064 | 0.01332
c1 = 0.00746 | 1.03e-09 | 1.45e-09 | – | – | – | – | – | –
c1 = 0.007513 | – | – | 0.005794 | 0.007199 | 0.008283 | 0.009197 | 0.01052 | 0.01318
c1 = 0.008044 | – | – | 0.005736 | 0.007119 | 0.008199 | 0.00911 | 0.01042 | 0.01307
c1 = 0.008569 | – | – | 0.005685 | 0.007044 | 0.00812 | 0.009028 | 0.01033 | 0.01295
c1 = 0.009089 | – | – | 0.005635 | 0.006974 | 0.008044 | 0.008949 | 0.01023 | 0.01284
c1 = 0.009602 | – | – | 0.005584 | 0.006908 | 0.007975 | 0.008878 | 0.01015 | 0.01274
c1 = 0.01 | 1e-09 | 1.41e-09 | – | – | – | – | – | –
c1 = 0.01011 | – | – | 0.005537 | 0.006846 | 0.007908 | 0.008807 | 0.01007 | 0.01264
c1 = 0.01061 | – | – | 0.005491 | 0.006795 | 0.00784 | 0.008734 | 0.009982 | 0.01254
c1 = 0.01111 | – | – | 0.005446 | 0.006723 | 0.007774 | 0.008665 | 0.009901 | 0.01244
c1 = 0.0116 | – | – | 0.005401 | 0.006663 | 0.007709 | 0.008596 | 0.009821 | 0.01234
c1 = 0.01209 | – | – | 0.005359 | 0.006604 | 0.007646 | 0.008528 | 0.009742 | 0.01226
c1 = 0.01256 | – | – | 0.00532 | 0.006549 | 0.007586 | 0.008464 | 0.009673 | 0.01215
c1 = 0.01304 | – | – | 0.005281 | 0.006498 | 0.00753 | 0.008437 | 0.009602 | 0.01206
c1 = 0.01351 | – | – | 0.005244 | 0.006448 | 0.007474 | 0.008343 | 0.009533 | 0.01197
c1 = 0.01397 | – | – | 0.00521 | 0.0064 | 0.007422 | 0.008286 | 0.009467 | 0.01189
c1 = 0.01443 | – | – | 0.005176 | 0.006354 | 0.00737 | 0.00823 | 0.009401 | 0.01181
c1 = 0.01489 | – | – | 0.00514 | 0.006307 | 0.007318 | 0.008174 | 0.009336 | 0.01172
c1 = 0.01534 | – | – | 0.005107 | 0.00626 | 0.007267 | 0.008118 | 0.009271 | 0.01164
c1 = 0.01579 | – | – | 0.005075 | 0.006217 | 0.007217 | 0.008064 | 0.009208 | 0.01156
c1 = 0.01623 | – | – | 0.005042 | 0.006174 | 0.00717 | 0.008012 | 0.009146 | 0.01149
c1 = 0.01666 | – | – | 0.005011 | 0.006133 | 0.007125 | 0.007962 | 0.009088 | 0.01141
